# Laboratory results reported in article PMC12412615, “Tailored SirReal-type inhibitors enhance SIRT2 inhibition through ligand stabilization and disruption of NAD^+ co-factor binding” (RSC Medicinal Chemistry, 2025).
# Tests used:
# Format in all cases: biochemical
# SIRT2 = molecular target: T1, SIRT2 (Homo sapiens, UniProt Q8IXJ6); experiment: Fluorescence-based SIRT2 deacetylation inhibition assay (Reaction Biology Corporation); set-up: purchased Reaction Biology Corporation (Malvern, USA), contract assay; details: for IC50: fluorogenic peptide of p53 residues 379–382 (RHKK(Ac)-Fl), mean with standard deviation, n = 3
# T1 sequence (Q8IXJ6 1-389): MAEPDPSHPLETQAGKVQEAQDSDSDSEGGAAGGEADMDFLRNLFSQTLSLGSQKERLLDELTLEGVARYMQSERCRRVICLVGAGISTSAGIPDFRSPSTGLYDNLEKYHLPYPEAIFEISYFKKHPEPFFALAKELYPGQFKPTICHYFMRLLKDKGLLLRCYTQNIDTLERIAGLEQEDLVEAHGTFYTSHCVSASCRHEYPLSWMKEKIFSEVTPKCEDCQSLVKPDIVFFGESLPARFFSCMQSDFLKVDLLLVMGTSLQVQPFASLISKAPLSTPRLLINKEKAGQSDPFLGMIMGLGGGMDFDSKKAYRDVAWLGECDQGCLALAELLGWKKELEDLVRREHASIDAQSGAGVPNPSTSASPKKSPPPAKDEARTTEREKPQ
# Procedure: The determination of SIRT2 inhibitory activity was performed by Reaction Biology Corporation (Malvern, USA) with a fluorescence-based assay utilizing the fluorogenic peptide of p53 residues 379–382 (RHKK(Ac)-Fl). […]. […] […]. On the contrary, we observed a significant increase in potency by the introduction of halogens at the R^2 position (compounds 29–31), highlighting the importance of the position of the functional group modifications. […]. […] Additional factors such as the atomic radius and thus steric requirements of these halogens may also play a significant role in the increase in potency, where the smaller chlorine atom may experience less steric effects upon binding at the active site compared to the larger bromine and iodine atoms. […]. […] IC50 values against SIRT2 are given as mean with standard deviations (n = 3). Inhibition percentages at 50 μM for SIRT1, 3 and 5 are given as mean without standard deviations (n = 2)
# (§1) The determination of inhibitory activity on the corresponding sirtuin enzymes was carried out based on a fluorescence-based assay commissioned by Reaction Biology Corporation (Malvern, USA) following an internal experimental protocol. Test substances were prepared in DMSO, delivered into the respective enzyme mixture (prepared with reaction buffer: Tris-HCl, pH = 8) and incubated for 10 minutes at 30 °C. Subsequently the substrate mixture (NAD^+ and a 7-amino-4-methylcoumarin-based fluorogenic peptide substrate) was added to initiate the deacetylation reaction. After 2 hours incubation at 30 °C, 2 mM nicotinamide (universal sirtuin inhibitor, to stop the reaction) and protease-based developer (to generate fluorescence by the cleavage of 7-amino-4-methylcoumarin) was added. At 30 °C 1 hour later, the respective fluorescence was measured (extinction/emission = 360 nm/460 nm). The inhibitory effect of the test compounds is indirectly proportional to the amount of converted fluorescent substrate standardized as 100% activity of the control without inhibitor. The test substances were tested in 10-dose IC50 triplicate mode, with 3-fold serial dilution starting at 50 μM final reaction concentration and if necessary, starting at 100 μM. For each serially diluted replicate of the triplicate, an IC50 value was determined by sigmoidal curve fitting, resulting in three IC50 values, from which the mean and corresponding standard deviation were subsequently calculated. Data processing was performed based on Prism 8.0.2 software (GraphPad Software, Boston, USA). Subtype selectivity on SIRT1, SIRT3 and SIRT5 was evaluated in a single dose duplicate mode at 50 μM final test compound concentration according to previous outlined internal protocol of Reaction Biology Corporation by determining the enzyme activity of the respective sirtuins in % (no inhibitor control as 100% activity).
# human SIRT1 = molecular target: T2, human SIRT1 (Homo sapiens, UniProt Q96EB6); experiment: Fluorescence-based sirtuin subtype selectivity assay, SIRT1, single dose 50 μM; details: 50 μM compound; mean, n = 2
# T2 construct: purchased Reaction Biology Corporation (Malvern, USA), contract assay
# T2 sequence (Q96EB6 1-747): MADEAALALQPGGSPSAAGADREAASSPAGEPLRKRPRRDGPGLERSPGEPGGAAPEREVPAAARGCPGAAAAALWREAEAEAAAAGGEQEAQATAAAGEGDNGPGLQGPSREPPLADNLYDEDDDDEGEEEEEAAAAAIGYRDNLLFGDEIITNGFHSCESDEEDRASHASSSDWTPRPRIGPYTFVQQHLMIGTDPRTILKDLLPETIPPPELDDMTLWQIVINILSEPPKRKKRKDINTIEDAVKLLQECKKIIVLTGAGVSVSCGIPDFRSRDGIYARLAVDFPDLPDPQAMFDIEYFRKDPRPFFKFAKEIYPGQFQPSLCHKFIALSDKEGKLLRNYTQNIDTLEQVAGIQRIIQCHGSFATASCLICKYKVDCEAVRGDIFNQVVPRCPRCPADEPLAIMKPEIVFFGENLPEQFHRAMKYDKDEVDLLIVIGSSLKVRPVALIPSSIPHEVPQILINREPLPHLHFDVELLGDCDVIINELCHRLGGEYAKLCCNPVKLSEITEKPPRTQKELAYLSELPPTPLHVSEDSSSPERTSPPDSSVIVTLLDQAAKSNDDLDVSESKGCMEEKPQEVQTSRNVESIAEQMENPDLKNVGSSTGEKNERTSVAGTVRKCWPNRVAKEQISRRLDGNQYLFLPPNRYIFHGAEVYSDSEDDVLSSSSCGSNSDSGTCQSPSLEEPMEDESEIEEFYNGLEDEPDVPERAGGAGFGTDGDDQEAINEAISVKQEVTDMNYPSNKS
# Procedure: (§2) IC50 values against SIRT2 are given as mean with standard deviations (n = 3). Inhibition percentages at 50 μM for SIRT1, 3 and 5 are given as mean without standard deviations (n = 2)
# (§3) The determination of subtype selectivity against SIRT1, 3 and 5 was performed by measuring the residual enzyme activity after treatment with the corresponding inhibitor at a fixed concentration of 50 μM and subsequent calculation of the percentage inhibition.
# as §1
# human SIRT3 = molecular target: T3, human SIRT3 (Homo sapiens, UniProt Q9NTG7); experiment: Fluorescence-based sirtuin subtype selectivity assay, SIRT3, single dose 50 μM; details: 50 μM compound; mean, n = 2
# T3 construct: purchased Reaction Biology Corporation (Malvern, USA), contract assay
# T3 sequence (Q9NTG7 1-399): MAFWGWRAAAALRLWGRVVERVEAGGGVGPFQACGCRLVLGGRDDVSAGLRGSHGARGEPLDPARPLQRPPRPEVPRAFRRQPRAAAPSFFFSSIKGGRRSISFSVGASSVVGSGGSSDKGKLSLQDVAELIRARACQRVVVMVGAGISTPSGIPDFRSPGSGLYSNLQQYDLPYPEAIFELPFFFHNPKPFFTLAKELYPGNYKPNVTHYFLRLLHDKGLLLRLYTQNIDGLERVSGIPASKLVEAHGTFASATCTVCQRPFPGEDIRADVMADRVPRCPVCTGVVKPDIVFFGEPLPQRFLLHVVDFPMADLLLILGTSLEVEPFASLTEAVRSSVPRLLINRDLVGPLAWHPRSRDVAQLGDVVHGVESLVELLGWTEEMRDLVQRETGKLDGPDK
# Procedure: as §2, §3, §1
# human SIRT5 = molecular target: T4, human SIRT5 (Homo sapiens, UniProt Q9NXA8); experiment: Fluorescence-based sirtuin subtype selectivity assay, SIRT5, single dose 50 μM; details: 50 μM compound; mean, n = 2
# T4 construct: purchased Reaction Biology Corporation (Malvern, USA), contract assay
# T4 sequence (Q9NXA8 37-310): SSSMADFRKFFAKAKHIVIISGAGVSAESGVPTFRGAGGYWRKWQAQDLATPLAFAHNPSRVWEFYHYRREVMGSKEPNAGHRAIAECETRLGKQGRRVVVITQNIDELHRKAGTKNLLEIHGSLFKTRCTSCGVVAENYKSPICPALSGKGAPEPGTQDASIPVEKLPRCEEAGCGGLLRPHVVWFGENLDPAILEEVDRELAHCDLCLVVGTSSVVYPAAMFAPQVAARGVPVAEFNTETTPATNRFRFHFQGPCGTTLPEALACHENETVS
# Procedure: as §2, §3, §1
SMILES,IC50 (SIRT2),inhibition at 50 µM (human SIRT1),inhibition at 50 µM (human SIRT3),inhibition at 50 µM (human SIRT5),"Fold increase in SIRT2 potency compared to lead structure (SIRT2; 29 vs 24a, 46 vs SirReal2)",Inhibition of SIRT1 in %@50 μM (human SIRT1)
"Cc1cc(C)nc(SCC(=O)Nc2cccc(COc3ccc(NC(=O)c4cnn(C)c4)cc3C#N)c2)n1 [Compound 14, N-(3-Cyano-4-((3-(2-((4,6-dimethylpyrimidin-2-yl)thio)acetamido)benzyl)oxy)phenyl)-1-methyl-1H-pyrazole-4-carboxamide]",125 ± 18 nM,6%,35%,2%,–,–
"Cc1cc(C)nc(SCC(=O)Nc2ncc(Cc3cccc4ccc(C=O)cc34)s2)n1 [Compound 49, 2-((4,6-Dimethylpyrimidin-2-yl)thio)-N-(5-((7-formylnaphthalen-1-yl)methyl)thiazol-2-yl)acetamide]",356 ± 42 nM,11%,13%,21%,–,–
"Cc1cc(C)nc(SCC(=O)Nc2ncc(Cc3cccc4ccc(C#N)cc34)s2)n1 [Compound 46, N-(5-((7-Cyanonaphthalen-1-yl)methyl)thiazol-2-yl)-2-((4,6-dimethylpyrimidin-2-yl)thio)acetamide]",122 ± 8 nM,6%,9%,8%,2 fold,–
"Cc1cc(C)nc(SCC(=O)Nc2cccc(COc3ccc(NC(=O)c4cnn(C)c4)c(I)c3)c2)n1 [Compound 31, N-(4-((3-(2-((4,6-Dimethylpyrimidin-2-yl)thio)acetamido)benzyl)oxy)-2-iodophenyl)-1-methyl-1H-pyrazole-4-carboxamide]",29 ± 2 nM,5%,22%,12%,–,–
"Cc1cc(C)nc(SCC(=O)Nc2cccc(COc3ccc(NC(=O)c4cnn(C)c4)c(C=O)c3)c2)n1 [Compound 32, N-(4-((3-(2-((4,6-Dimethylpyrimidin-2-yl)thio)acetamido)benzyl)oxy)-2-formylphenyl)-1-methyl-1H-pyrazole-4-carboxamide]",184 ± 9 nM,–,7%,6%,–,n.i.
"Cc1cc(C)nc(SCC(=O)Nc2cccc(COc3ccc(NC(=O)c4cnn(C)c4)cc3C=O)c2)n1 [Compound 12, N-(4-((3-(2-((4,6-Dimethylpyrimidin-2-yl)thio)acetamido)benzyl)oxy)-3-formylphenyl)-1-methyl-1H-pyrazole-4-carboxamide]",147 ± 13 nM,2%,24%,16%,–,–
"Cc1cc(C)nc(SCC(=O)Nc2cccc(COc3ccc(NC(=O)c4cnn(C)c4)cc3Br)c2)n1 [Compound 11, N-(3-Bromo-4-((3-(2-((4,6-dimethylpyrimidin-2-yl)thio)acetamido)benzyl)oxy)phenyl)-1-methyl-1H-pyrazole-4-carboxamide]",81 ± 10 nM,–,24%,13%,–,n.i.
"Cc1cc(C)nc(SCC(=O)Nc2cccc(COc3ccc(NC(=O)c4cnn(C)c4)c(B(O)O)c3)c2)n1 [Compound 33, (5-((3-(2-((4,6-Dimethylpyrimidin-2-yl)thio)acetamido)benzyl)oxy)-2-(1-methyl-1H-pyrazole-4-carboxamido)phenyl)boronic acid]",202 ± 6 nM,71%,24%,14%,–,–
"Cc1cc(C)nc(SCC(=O)Nc2cccc(COc3ccc(NC(=O)c4cnn(C)c4)cc3B(O)O)c2)n1 [Compound 13, (2-((3-(2-((4,6-Dimethylpyrimidin-2-yl)thio)acetamido)benzyl)oxy)-5-(1-methyl-1H-pyrazole-4-carboxamido)phenyl)boronic acid]",294 ± 17 nM,29%,5%,10%,–,–
"Cc1cc(C)nc(SCC(=O)Nc2cccc(COc3ccc(NC(=O)c4cnn(C)c4)c(C#N)c3)c2)n1 [Compound 34, N-(2-Cyano-4-((3-(2-((4,6-dimethylpyrimidin-2-yl)thio)acetamido)benzyl)oxy)phenyl)-1-methyl-1H-pyrazole-4-carboxamide]",91 ± 7 nM,23%,31%,4%,–,–
"Cc1cc(C)nc(SCC(=O)Nc2ncc(Cc3cccc4ccc(B(O)O)cc34)s2)n1 [Compound 48, (8-((2-(2-((4,6-Dimethylpyrimidin-2-yl)thio)acetamido)thiazol-5-yl)methyl)naphthalen-2-yl)boronic acid]",235 ± 36 nM,19%,12%,23%,–,–
"Cc1cc(C)nc(SCC(=O)Nc2cccc(COc3ccc(NC(=O)c4cnn(C)c4)c(Br)c3)c2)n1 [Compound 30, N-(2-Bromo-4-((3-(2-((4,6-dimethylpyrimidin-2-yl)thio)acetamido)benzyl)oxy)phenyl)-1-methyl-1H-pyrazole-4-carboxamide]",54 ± 7 nM,4%,43%,1%,–,–
